Laboratory results taken from US10420341B2, “Herbicidal phenylpyrimidines” (BASF SE, priority 2015, dated 2019).

Experiments:
POLCO = assay: greenhouse post-emergence herbicidal test; format: in vivo, Polygonum convolvulus; conditions: post-emergence method, application rate 500 g/ha, scale from 0 to 100
How it was run: (§1)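 Read-out is a visual 0–100 injury rating, 100 meaning complete destruction of at least aerial parts and 0 meaning normal growth. It was taken over 2–4 weeks after plants 3–15 cm tall were treated with compound suspended or emulsified in water.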

APESV = assay: greenhouse pre-emergence herbicidal test; format: in vivo, Apera spica-venti; conditions: pre-emergence method, scale from 0 to 100
How it was run: (§2)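 Species-dependent temperatures of 10-25° C. or 20-35° C. were maintained for a 2 to 4 week test after pre-emergence nozzle application of compounds dispersed in water. Efficacy was scored 0-100, with 100 denoting no emergence or total aerial destruction.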

ALOMY [1] = assay: greenhouse pre-emergence herbicidal test; format: in vivo, Alopercurus myosuroides; conditions: pre-emergence method, application rate 500 g/ha, scale from 0 to 100
Source text: The seeds of the test plants were sown separately for each species. For the pre-emergence treatment, the active ingredients, which had been suspended or emulsified in water, were applied directly after sowing by means of finely distributing nozzles. The containers were irrigated gently to promote germination and growth and subsequently covered with transparent plastic hoods until the plants had rooted. This cover caused uniform germination of the test plants, unless this had been impaired by the active ingredients. Depending on the species, the plants were kept at 10-25° C. or 20-35° C., respectively. The test period extended over 2 to 4 weeks. During this time, the plants were tended, and their response to the individual treatments was evaluated. Evaluation was carried out using a scale from 0 to 100. 100 means no emergence of the plants, or complete destruction of at least the aerial moieties, and 0 means no damage, or normal course of growth. […] The plants used in the greenhouse experiments were of the following species: [table]

ALOMY [2] = assay: greenhouse post-emergence herbicidal test; format: in vivo, Alopercurus myosuroides; conditions: post-emergence method, application rate 500 g/ha, scale from 0 to 100
How it was run: as §1

ECHCG [3] = assay: greenhouse pre-emergence herbicidal test; format: in vivo, Echinocloa crus-galli; conditions: pre-emergence method, scale from 0 to 100
How it was run: as §2

ECHCG [4] = assay: greenhouse post-emergence herbicidal test; format: in vivo, Echinocloa crus-galli; conditions: post-emergence method, scale from 0 to 100
How it was run: as §1

SETVI = assay: greenhouse post-emergence herbicidal test; format: in vivo, Setaria viridis; conditions: post-emergence method, scale from 0 to 100
Source text: (§3) The seeds of the test plants were sown separately for each species. For the post-emergence treatment, the test plants were first grown to a height of 3 to 15 cm, depending on the plant habit, and only then treated with the active ingredients which had been suspended or emulsified in water. For this purpose, the test plants were either sown directly and grown in the same containers, or they were first grown separately as seedlings and transplanted into the test containers a few days prior to treatment. Depending on the species, the plants were kept at 10-25° C. or 20-35° C., respectively. The test period extended over 2 to 4 weeks. During this time, the plants were tended, and their response to the individual treatments was evaluated. Evaluation was carried out using a scale from 0 to 100. 100 means no emergence of the plants, or complete destruction of at least the aerial moieties, and 0 means no damage, or normal course of growth. […] The plants used in the greenhouse experiments were of the following species: [table]

AVEFA = assay: greenhouse post-emergence herbicidal test; format: in vivo, Avena fatua; conditions: post-emergence method, application rate 500 g/ha, scale from 0 to 100
How it was run: as §1

AMARE = assay: greenhouse post-emergence herbicidal test; format: in vivo, Amaranthus retroflexus; conditions: post-emergence method, application rate 500 g/ha, scale from 0 to 100
How it was run: as §1

ABUTH = assay: greenhouse post-emergence herbicidal test; format: in vivo, Abutilon theophrasti; conditions: post-emergence method, application rate 500 g/ha, scale from 0 to 100
Source text: as §3

Row | SMILES | herbicidal activity against POLCO (POLCO) | herbicidal activity against APESV (APESV; application rate 500 g/ha) | herbicidal activity against ALOMY (ALOMY [1]) | herbicidal activity against ALOMY (ALOMY [2]) | herbicidal activity against ECHCG (ECHCG [3]; application rate 500 g/ha) | herbicidal activity against ECHCG (ECHCG [4]; application rate 500 g/ha) | also measured
1 | COC(=O)c1nc(C2CC2)ncc1-c1cc(F)ccc1C [example 226] | very good (a very good herbicidal activity is given at values of at least 85) | good (A good herbicidal activity is given at values of at least 70) | very good (a very good herbicidal activity is given at values of at least 85) | very good (a very good herbicidal activity is given at values of at least 85) | very good (a very good herbicidal activity is given at values of at least 85) |  | 
2 | Cc1ccc(Cl)cc1-c1cnc(C2CC2)nc1C(=O)O [example 164] | very good (a very good herbicidal activity is given at values of at least 85) | very good (a very good herbicidal activity is given at values of at least 85) | very good (a very good herbicidal activity is given at values of at least 85) |  | very good (a very good herbicidal activity is given at values of at least 85) | very good (a very good herbicidal activity is given at values of at least 85) | 
3 | COC(=O)c1nc(C2CC2)ncc1-c1ccccc1F [example 190] | good (A good herbicidal activity is given at values of at least 70) | very good (a very good herbicidal activity is given at values of at least 85) | very good (a very good herbicidal activity is given at values of at least 85) |  | very good (a very good herbicidal activity is given at values of at least 85) |  | 
4 | CNC(=O)c1nc(C2CC2)ncc1-c1ccccc1Cl [example 289] |  |  |  |  |  |  | herbicidal activity against SETVI (SETVI; application rate 1000 g/ha): good (A good herbicidal activity is given at values of at least 70); herbicidal activity against APESV (APESV; application rate 1000 g/ha): very good (a very good herbicidal activity is given at values of at least 85); herbicidal activity against ECHCG (ECHCG [3]; application rate 1000 g/ha): good (A good herbicidal activity is given at values of at least 70)
5 | COC(=O)c1nc(C2CC2)ncc1-c1cc(C)ccc1Cl [example 205] |  | very good (a very good herbicidal activity is given at values of at least 85) | good (A good herbicidal activity is given at values of at least 70) | good (A good herbicidal activity is given at values of at least 70) | very good (a very good herbicidal activity is given at values of at least 85) | very good (a very good herbicidal activity is given at values of at least 85) | 
6 | COC(=O)c1nc(C2CC2)ncc1-c1cc(C)c(F)cc1C [example 230] |  | very good (a very good herbicidal activity is given at values of at least 85) | good (A good herbicidal activity is given at values of at least 70) | good (A good herbicidal activity is given at values of at least 70) | very good (a very good herbicidal activity is given at values of at least 85) | very good (a very good herbicidal activity is given at values of at least 85) | 
7 | COC(=O)C(C)(C)SC(=O)c1nc(C2CC2)ncc1-c1ccccc1Cl [example 283] | very good (a very good herbicidal activity is given at values of at least 85) | very good (a very good herbicidal activity is given at values of at least 85) | very good (a very good herbicidal activity is given at values of at least 85) |  |  |  | herbicidal activity against AVEFA (AVEFA): very good (a very good herbicidal activity is given at values of at least 85)
8 | COC(=O)c1nc(C2CC2)ncc1-c1cc(Cl)ccc1C [example 227] |  | very good (a very good herbicidal activity is given at values of at least 85) | very good (a very good herbicidal activity is given at values of at least 85) | very good (a very good herbicidal activity is given at values of at least 85) | very good (a very good herbicidal activity is given at values of at least 85) | very good (a very good herbicidal activity is given at values of at least 85) | 
9 | O=C(O)c1nc(C2CC2)ncc1-c1c(Cl)cc(F)cc1Cl [example 147] | very good (a very good herbicidal activity is given at values of at least 85) | very good (a very good herbicidal activity is given at values of at least 85) | very good (a very good herbicidal activity is given at values of at least 85) | very good (a very good herbicidal activity is given at values of at least 85) |  |  | 
10 | O=C(O)c1nc(C2CC2)ncc1-c1ccccc1C(F)(F)F [example 176] | very good (a very good herbicidal activity is given at values of at least 85) | very good (a very good herbicidal activity is given at values of at least 85) | very good (a very good herbicidal activity is given at values of at least 85) |  |  |  | herbicidal activity against AVEFA (AVEFA): very good (a very good herbicidal activity is given at values of at least 85)
11 | COC(=O)c1nc(C2CC2)ncc1-c1cc(OC)ccc1Cl [example 206] |  | very good (a very good herbicidal activity is given at values of at least 85) |  |  | very good (a very good herbicidal activity is given at values of at least 85) | good (A good herbicidal activity is given at values of at least 70) | herbicidal activity against SETVI (SETVI; application rate 500 g/ha): good (A good herbicidal activity is given at values of at least 70)
12 | COc1ccc(-c2cnc(SC)nc2C(=O)O)c(OC)c1 [example 109] |  |  |  |  |  |  | herbicidal activity against SETVI (SETVI; application rate 2000 g/ha): good (A good herbicidal activity is given at values of at least 70)
13 | COC(=O)c1nc(C2CC2)ncc1-c1ccccc1Cl [example 201] | very good (a very good herbicidal activity is given at values of at least 85) | very good (a very good herbicidal activity is given at values of at least 85) | very good (a very good herbicidal activity is given at values of at least 85) | very good (a very good herbicidal activity is given at values of at least 85) | very good (a very good herbicidal activity is given at values of at least 85) |  | 
14 | O=C(O)c1nc(C2CC2)ncc1-c1ccccc1Br [example 152] |  | very good (a very good herbicidal activity is given at values of at least 85) | good (A good herbicidal activity is given at values of at least 70) |  | very good (a very good herbicidal activity is given at values of at least 85) |  | herbicidal activity against AMARE (AMARE): good (A good herbicidal activity is given at values of at least 70)
15 | Cc1ccc(F)cc1-c1cnc(C2CC2)nc1C(=O)O [example 163] |  |  |  |  |  |  | herbicidal activity against SETVI (SETVI; application rate 1000 g/ha): very good (a very good herbicidal activity is given at values of at least 85); herbicidal activity against APESV (APESV; application rate 1000 g/ha): very good (a very good herbicidal activity is given at values of at least 85); herbicidal activity against ECHCG (ECHCG [4]; application rate 1000 g/ha): very good (a very good herbicidal activity is given at values of at least 85); herbicidal activity against ECHCG (ECHCG [3]; application rate 1000 g/ha): very good (a very good herbicidal activity is given at values of at least 85)
16 | CCOC(=O)c1nc(C2CC2)ncc1-c1ccccc1Cl [example 251] |  | very good (a very good herbicidal activity is given at values of at least 85) | very good (a very good herbicidal activity is given at values of at least 85) |  |  |  | herbicidal activity against AMARE (AMARE): very good (a very good herbicidal activity is given at values of at least 85); herbicidal activity against ABUTH (ABUTH): very good (a very good herbicidal activity is given at values of at least 85)
